The results in this text go back to the METLIN SMRT retention time set (Domingo-Almenara et al. 2019).

This data set in a line: gradient 5% acetonitrile 3 min, to 50% in 2 min, to 85% in 15 min, held 3 min, 100 µL/min. To be noted: column: Zorbax Extend-C18 2.1 x 50 mm; eluents: water / acetonitrile, 0.1% formic acid. The gist of the method:
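In both positive and negative ionization mode, a quadrupole time-of-flight mass spectrometer coupled to HPLC analyzed pure standards run in mixtures of ~100 molecules. The Zorbax Extend-C18 column (2.1 × 50 mm, 1.8 μm) was operated at 100 μL/min with water and acetonitrile, each containing 0.1% formic acid. The dead volume was 40 μL and the dwell volume 900 μL. Retention time came from adduct peaks that were computationally picked and individually inspected by hand.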
Consider `Cc1ccc(NC(=O)Nc2ccc3nncn3c2)c(C)c1`, for which the RP-LC retention time is 747 s. Compound `Cc1noc(-c2ccnc(-n3cnc(C(=O)NCCC(C)C)c3)c2)n1` showed an RP-LC retention time of 849 s. The value for `CCOC(=O)CNC(=O)C1CC(=O)N(CCc2c[nH]c3ccc(F)cc23)C1` (stereo not given) was 962 s; that for `COc1ccc(C)cc1NC(=O)N1CCCC1c1cc(C(C)C)on1` (stereo not given) was 1050 s. The compound `CCc1ccc2oc(C(=O)NCC(c3cccs3)N(C)C)cc(=O)c2c1` (stereo not given) yielded an RP-LC retention time of 654 s. In the case of `Cc1nn(-c2ccccc2)c(C)c1S(=O)(=O)N1CCC(C(=O)Nc2ccc(Cl)cc2)CC1` it was 726 s; in that of `CC(C)CC(=O)Nc1ccc(S(=O)(=O)N2CCCC2c2nc(-c3ccccc3)no2)cc1` (stereo not given), 1080 s. The value for `CCn1nc(CNC(=O)c2cnccn2)c2ccccc21` was 718 s.

Take `CCCCN1C(=O)C(C)(C(=O)Nc2ccc(OC)c(Cl)c2)Oc2cccnc21` (stereo not given): the RP-LC retention time was 1080 s. As for `CN(C1CCc2nn(CC3CC3)c(=O)n2CC1)S(=O)(=O)c1cccc(Cl)c1` (stereo not given), the RP-LC retention time is 818 s. The value for `Cc1ccc(-n2cc(C3=CCN(CC(=O)NC4CCN(Cc5ccccc5)CC4)CC3)cn2)cc1` was 551 s; that for `Cc1nn(C)cc1CN(C)C(=O)c1cc2c(=O)n(CC(C)C)c3ccccc3n2n1` was 808 s; that for `CC(=O)c1ccc(NC(=O)CN2C(=O)NC3(CCCCC3)C2=O)cc1` was 717 s. In the case of `Cc1ccc(C)c(N2CCN(S(=O)(=O)c3c(C)sc(C)c3-c3cc(C)[nH]n3)CC2)c1` it was 1150 s; in that of `O=C(NCc1nnnn1-c1ccc(F)c(F)c1)c1cc(=O)c2ccccc2o1`, 707 s. The value for `O=C(c1ccccc1)N1CCC(n2nc(-c3ccsc3)ccc2=O)CC1` was 780 s.

`COC(=O)c1cnc2nc(C)ccc2c1Nc1ccc(Br)cc1C` had an RP-LC retention time of 732 s. In the case of `CCS(=O)(=O)N1CCC(c2noc(-c3ccccc3)n2)CC1` it was 897 s. The value for `COCCNC(=O)NCC1(c2ccccc2)CCOCC1` was 615 s; that for `COc1nccnc1N1CCC(N(C)C(=O)Cc2c(C)noc2C)C1` (stereo not given) was 642 s; that for `COc1ccc(C(=O)N2CCC(c3cc(N)on3)CC2)c(OC)c1` was 658 s.

For `CCCNc1cc(N2CCC(CCC(=O)NCC)CC2)ncn1`, the RP-LC retention time was 595 s.

Take `CCCCN1CCN(Cc2nc3nc(C)cc(N4CCCC4)n3n2)CC1`: the RP-LC retention time came out at 574 s. The value for `Cc1nn(CC(=O)N2CCN(C)CC2)c(=O)c2nc(-c3ccccc3)sc12` was 616 s; that for `O=C(Cc1ccc(F)cc1)Nc1nc(-c2ccccc2)cs1` was 988 s.

Turning to `COc1ccc(-n2c(=O)c(C(=O)Nc3cccc(F)c3)c(O)c3cccnc32)cc1`, the RP-LC retention time is 1250 s. In the case of `COc1ccc2c(c1)C=C(C(=O)NCc1ccc(OC)c(OC)c1)CO2` it was 805 s; in that of `Cc1cc(SCC(=O)Nc2ccc(Cl)cc2C(F)(F)F)nc(-c2cccnc2)n1`, 785 s; in that of `O=C(Nc1ccc(Cn2cncn2)cc1)c1cccs1`, 661 s. Regarding `CCn1nc(-c2nc(C(C)(C)C)no2)ccc1=O`, the RP-LC retention time came to 883 s.

In turn, `COc1ccc(NC(=O)C2CC(=O)N(CCc3c[nH]c4ccc(F)cc34)C2)c(OC)c1` (stereo not given) gave an RP-LC retention time of 793 s. In the case of `Cc1ccn2cc(C(=O)NCCN(C)C3CCCCC3)nc2c1` it was 572 s; in that of `Cc1ccc(Sc2nccnc2N2CCC(C(=O)N3CCOCC3)CC2)cc1`, 881 s. As for `Cc1ccccc1NC(=O)Cn1ncc2c(c1=O)N(CC1CC1)C(=O)CS2`, the RP-LC retention time was determined as 797 s. In the case of `Cc1ccccc1CNC(=O)C1CCCN(C(=O)C2Sc3ccccc3NC2=O)C1` (stereo not given) it was 760 s; in that of `Brc1cccc(-c2noc(Cc3nnc(-c4ccccc4)o3)n2)c1`, 1090 s; in that of `COc1cc(-c2ccc(F)cc2)nc2ccc(NS(=O)(=O)c3ccccc3)cc12`, 754 s. `CCCc1cnc2c(c1SCC(=O)N(CC)CC)c(=O)n(C)c(=O)n2C` returned an RP-LC retention time of 892 s. In the case of `CC1(C(=O)NCc2ccc(F)cc2)CCN(C(=O)Nc2ccccc2C(F)(F)F)CC1` it was 877 s; in that of `O=C(Nc1ccc(N2CCN(C3CCCCC3)C2=O)nc1)c1ccc(F)c(F)c1`, 886 s; in that of `CCc1ccccc1NC(=O)C1CCN(S(C)(=O)=O)c2ccccc2O1` (stereo not given), 912 s. The value for `CC(C)Cn1c(CC2CCN(C(=O)c3n[nH]c4ccccc34)C2)nc2cccnc21` (stereo not given) was 627 s. For the compound `O=C(Nc1cnn(-c2ncc(N3CCCC3)cn2)c1)c1ccc(C(F)(F)F)cc1`, the RP-LC retention time worked out at 941 s.

Compound `O=c1n(Cc2ccccc2)nc2n1CCN(S(=O)(=O)c1ccc3c(c1)OCCO3)CC2` gave an RP-LC retention time of 818 s. For the compound `CC1=C(c2ccc(C)cc2)S(=O)(=O)N=C1N1CCCN(C(=O)Cn2ccnc2C)CC1`, the RP-LC retention time is 616 s. In the case of `COc1ccc(-c2nnc(-c3ccc(C)c(S(=O)(=O)N4CCC(C(=O)O)CC4)c3)o2)cc1OC` it was 785 s; in that of `O=C(Cc1ccccc1Br)N1CCN(c2cc(-c3ccc(Cl)cc3)[nH]n2)CC1`, 939 s. In the case of `O=C(Cc1csc(NC(=O)C2CC2)n1)NCc1ccccn1` it was 519 s; in that of `O=C(Cn1nc(C2CC2)cc1C(=O)N1CCCC1)NCc1cccc(Cl)c1`, 782 s. In the case of `O=C(C1=CN(c2ccc(F)c(Cl)c2)c2ccccc2S1(=O)=O)N1CCCC1` it was 817 s; in that of `Cc1ccc(Cn2cc(C(=O)O)c(S(=O)(=O)N3CCSCC3)n2)cc1`, 861 s.

The compound `Cc1cccc(NC(=O)Nc2cnn(-c3ncncc3N3CCC(C)CC3)c2)c1` returned an RP-LC retention time of 761 s. The compound `CCCCCc1c(C)nn(-c2nc(CC(=O)Nc3nc4ccccc4[nH]3)cs2)c1C` came in with an RP-LC retention time of 995 s.

`COc1cccc(-c2ccc(=O)n(CCCC(=O)Nc3cccc4nsnc34)n2)c1` had an RP-LC retention time of 764 s. The value for `O=C(Nc1cccc(C(F)(F)F)c1)N1CCCC(Cn2cnc3cccnc32)C1` (stereo not given) was 751 s. The value for `Cc1nc(N2CCN(c3ccccn3)CC2)nc2c1C(=O)CC(c1cccc(Cl)c1)C2` (stereo not given) was 838 s; that for `CCOc1ccc(CC(=O)NC2CCN(c3cc(-c4cccs4)[nH]n3)C2)cc1` (stereo not given) was 733 s. With `COc1ccc(CCc2nc3nccc(-c4ccc5c(c4)OCCCO5)n3n2)cc1OC`, the RP-LC retention time is 874 s.

The compound `COC(=O)c1ccccc1NC(=O)CSc1nnc2c3cc(-c4ccc(F)cc4)nn3ccn12` showed an RP-LC retention time of 957 s. The compound `CC(C)n1c(-c2cccc(C(=O)NCCN3CCCCC3)c2)nc2cccnc21` showed an RP-LC retention time of 599 s. The value for `Cc1cccc(CNC(=O)c2cc3c(-c4cccs4)nn(-c4ccccc4)c3n2C)c1` was 1200 s. For the compound `COc1ccc(N2CCN(c3ncc(S(=O)(=O)c4ccc(C)cc4)c(N)n3)CC2)cc1`, the RP-LC retention time amounted to 919 s. In the case of `CCn1nnc2ccc(-c3noc(-c4cccc(C#N)c4)n3)cc21` it was 957 s; in that of `O=C(Nc1nnc(SCc2nnc(-c3ccc4c(c3)OCO4)o2)s1)C1CC1`, 750 s. Regarding `CCN1CCCC1CNS(=O)(=O)c1ccc2c(c1)CCN2C(=O)CCC(=O)N1CCCCC1` (stereo not given), the RP-LC retention time was found to be 620 s. `O=C(Nc1ccc2c(c1)CCC2)Nc1cccn2ncnc12` came in with an RP-LC retention time of 891 s. The value for `O=C(Nc1cc(F)ccc1F)Nc1c(-c2ccc(F)cc2)nc2ccccn12` was 706 s.

For `COc1ccccc1CNC1=NCCNC12CCN(S(=O)(=O)c1cc(C)ccc1C)CC2`, the RP-LC retention time came to 775 s. In the case of `Cn1c(SCc2ccc([N+](=O)[O-])cc2)nnc1-c1cccnc1` it was 627 s. The value for `O=C(CN1CC(c2nc(-c3cccs3)no2)C1)N1CCc2ccccc21` was 605 s; that for `O=C(NCc1ccco1)c1ccc(NC(=O)C2CCC2)cc1N1CCOCC1` was 750 s. In the case of `Cn1ccc2ccn(CC(=O)NCc3ccccc3Br)c(=O)c21` it was 778 s; in that of `NC(=O)C1CCCN(C(=O)c2ccc(F)cc2F)C1` (stereo not given), 599 s; in that of `COC(=O)c1c(NCc2ccc(C)o2)c2cccc(Cl)c2[nH]c1=O`, 766 s. In turn, `COc1ccc(NC(=O)c2ccc(C(=N)N(C)C)cc2)c(C(=O)Nc2ccc(Cl)cn2)c1` displayed an RP-LC retention time of 725 s.

For the compound `CCOC(=O)c1c(S(=O)(=O)N2CCC(C(=O)Nc3ccccc3F)CC2)c(C)n(C)c1C`, the RP-LC retention time amounted to 851 s.

Turning to `O=C(NCc1ccccc1Cl)C1CCN(c2nnc(-c3ccccc3)o2)CC1`, the RP-LC retention time was 847 s. In the case of `COc1ccc(CNC(=O)N2CCC(c3noc(-c4cnccn4)n3)C2)cc1` (stereo not given) it was 652 s; in that of `Cc1ccccc1-c1nc(C)c(C(=O)NC(C)C)s1`, 903 s; in that of `Cc1noc2nc(C)n(CC(=O)NC3CCCC3)c(=O)c12`, 678 s.
